# Data as given in PMC4764201, “High Throughput Screen for Escherichia coli Twin Arginine Translocation (Tat) Inhibitors” (PLoS ONE, 2016).
# How the values were obtained:
# [1] = system: Escherichia coli Tat pathway; experiment: Live cell assay: total mCherry fluorescence of cells producing spTorA-mCherry-SsrA (primary HTS assay); format: cell-based; settings: for effect on mCherry fluorescence in culture: nigericin and/or valinomycin, 50 μM each
# Text: Having obtained the calibration and validation data described in the previous sections, we next established the protocol for the HTS. Details are provided in the Materials and Methods section. Here, we briefly summarize the assay. A single colony of E. coli strain MC4100(DE3) containing plasmids encoding TatABC and spTorA-mCherry-SsrA was inoculated into LB and grown overnight. The next morning, cells were transferred to fresh media, the production of TatABC and spTorA-mCherry-SsrA was induced, and cultures were aliquoted onto plates with test compounds. NaSCN was included in control wells to simulate a hit. Cells were grown for 8 h, followed by incubation at 4°C overnight, and then read the next day. Setting the total cellular fluorescence obtained with spTorA-mCherry-H6 under Tat^++ conditions to 100%, spTorA-mCherry-SsrA yielded a total cellular fluorescence signal of 63±14%, consistent with SsrA-induced degradation of the mCherry protein. The total cellular fluorescence was further reduced to 36±14% in the presence of 30 mM NaSCN (simulated hit), and to 41±6% in the absence of TatABC, verifying the Δψ- and Tat-dependence of the fluorescence signal (Fig 4D).
# A single colony of E. coli strain MC4100(DE3) (pTatABC-DUET1, pTorA-mCherry-SsrA) was inoculated into a 100 mL LB culture supplemented with Ap and Cm and grown at 37°C with shaking (250 rpm) overnight. Cells were harvested by centrifugation at 4,000g for 10 min at room temperature (RT), suspended in 10 mL fresh LB broth supplemented with Ap and Cm, and the optical density (A500) was determined. Simultaneously, 700 mL LB supplemented with 100 mM arabinose, 2 mM IPTG, 100 μg/mL Ap and 68 μg/mL Cm was filter-sterilized (0.22 μm), and then divided into 200 mL (A) and 500 mL (B) portions. Sterile NaSCN (30 mM final; 1.5 mL of 4 M NaSCN) was added to portion A, and an equal ratio of sterile water was added to portion B (3.75 mL). Media and cells were transferred to the HTS facility on ice.
# A CyBi-Well vario pipetting workstation (CyBio, Jena, Germany) was used to dispense library compounds and cultures. Library compounds (1 μL) solubilized in DMSO were added to 384-well black, clear-bottomed plates (Greiner Bio-one, Germany) in columns 3 to 22 (320 wells/plate). For controls, DMSO (1 μL) was added to each well in columns 1, 2, […], to achieve DMSO uniformity across the plate. Both portions of LB media were inoculated with E. coli MC4100(DE3) (pTatABC-DUET1, pTorA-mCherry-SsrA) from the concentrated stock to a final A500 = 0.15. The media with 30 mM NaSCN (positive control, or simulated hit) was dispensed into each well of columns 1 and 24 (49 μL each). An equivalent volume of media without NaSCN was dispensed into each well of columns 2 to 23. Columns 2 and 23 lacked NaSCN and test compounds and served as negative controls. The first 12,800 compounds were screened at 5 μM (plates 1–40), and the remaining 38,800 compounds were screened at 20 μM (plates 41–162).
# (§1) The plates containing cells and dispersed test compounds were grown with shaking (200 rpm) at 25°C for 8 h. Plates were individually mounted, not stacked, on a hollow plastic platform, allowing adequate air circulation. Following the 8 h incubation, plates were transferred to 4°C for 16 h. Each plate was covered with an empty plate to prevent condensation on the lid. […] Following the incubation, plates were read using a BMG Polarstar Omega plate reader (BMG Labtech, Ortenberg, Germany) to determine optical densities (A500) and mCherry fluorescence intensities (EX = 584 nm, EM = 620 nm).
# Supplementary file pone.0149659.s003.tiff: S3 Fig IC50's for Hit Compound 181^JS. (A) The total cellular mCherry fluorescence (live cell assay; n = 1), (B) the in vitro NADH-dependent Tat transport efficiency of pre-SufI (n = 1), and (C) the maximum transmembrane electrical potential gradient (n = 1) were measured for a range of concentrations of compound 181^JS (S2E Fig). (D) SDS-PAGE gel showing in-gel fluorescence data used in (B). […]
# E. coli MC4100(DE3) = experiment: Cell growth (optical density A500) under Tat++ conditions; format: cell-based, Escherichia coli
# Protocol: Fig 4 Effect of Oxidative Phosphorylation Inhibitors on In Vivo Tat Transport and Sensitivity of Fluorescence Detection on Plates. (A) Effect of oxidative phosphorylation inhibitors on cell growth and mCherry fluorescence under Tat^++ conditions. Cells producing spTorA-mCherry-SsrA under Tat^++ conditions were grown at 25°C for 8 h in the presence of the indicated respiratory inhibitors. After overnight incubation at 4°C, optical densities (upper panel; A500) and total mCherry cellular fluorescence intensities (lower panel; EX = 587 nm, EM = 610 nm) were measured (n = 3). Nigericin (N; 50 μM) is a H^+/K^+ exchanger, which collapses the ΔpH gradient. Valinomycin (V; 50 μM) is a K^+ ionophore, which collapses the Δψ. NaSCN (SCN; 50 mM) collapses the Δψ. NaN3 (N3; 0.1%) inhibits the cytochrome bo3 terminal oxidase. (B) Effect of NaSCN concentration on cell density and total mCherry cellular fluorescence. Measurements were made after incubating cells overnight at 4°C (n = 3). (C) Calibration and sensitivity of mCherry fluorescence detection in 384-well plates. Overnight cultures of E. coli MC4100(DE3) cells were diluted to A500 = 0.25, 0.2, 0.15, 0.10 and 0.05, and aliquoted into 384-well plates. The spTorA-mCherry-SsrA and TatABC proteins were induced together or neither were induced, as indicated. The cells were incubated at 25°C for 8 hours, and stored overnight at 4°C. Optical densities (upper panel) and mCherry fluorescence intensities (lower panel) were determined with a BMG Polarstar Omega plate reader (at 500 nm for absorbance; EX = 584 nm, EM = 620 nm for fluorescence). For comparison, the absorbance and fluorescence intensities from purified spTorA-mCherry-H6 (30, 25, 20, 15, 10 and 5 nM) are also shown (n = 3 plates, 16 wells/plate). (D) Simulated hits on 384-well plates. Using the approach described in (C), cells (A500 = 0.15) were grown on plates under the indicated conditions, and then fluorescence intensities were measured. spTorA-mCherry-SsrA was used for conditions II-IV. spTorA-mCherry-H6 was used for a minus SsrA control (I; 100%). The SsrA tag decreased the mCherry fluorescence intensity (II; 63±14%), consistent with a decrease in cytoplasmic mCherry concentration due to SsrA-dependent degradation.
# as §1
# Supplementary file pone.0149659.s005.tiff: S5 Fig Effect of P. aeruginosa Tat Inhibitors on E. coli Cell Growth and Tat Transport. The concentration-dependent effects of Bay 11–7082 (A) and N-phenylmaleimide (B) on bacterial growth (black) and in vivo Tat transport of spTorA-mCherry-SsrA (red) was determined under Tat^++ conditions (top). An overnight culture of MC4100(DE3) (pTorA-mCherry-SsrA, pTatABC-Duet1) was diluted 1:50 in 10 mL fresh LB broth with appropriate antibiotics and dispensed (2 mL) into 5 tubes, and growth was continued at 37°C with shaking at 200 rpm until A500 ≈ 0.5. The indicated concentrations of the two compounds were added, and the expression of spTorA-mCherry-SsrA and TatABC were induced. Cultures were grown for another 8 h at 25°C. Cell growth was assayed by A500, and cells (1 mL, A500 = 1.0) were fractionated into cytoplasmic (C) and periplasmic (P) fractions as described. Transport of spTorA-mCherry-SsrA was assayed by in-gel fluorescence of mCherry (upper gels) and Western blot analyses (middle gels). […]
# [2] = molecular target: E. coli Tat machinery (IMVs containing overproduced TatABC) (Escherichia coli, UniProt P69423+P69425+P69428); settings: cited from earlier work; for effect on Tat transport in vitro: 2.5 μM of each of the two ionophores, both added
# Sequence of E. coli Tat machinery (IMVs containing overproduced TatABC) (P69423 2-258): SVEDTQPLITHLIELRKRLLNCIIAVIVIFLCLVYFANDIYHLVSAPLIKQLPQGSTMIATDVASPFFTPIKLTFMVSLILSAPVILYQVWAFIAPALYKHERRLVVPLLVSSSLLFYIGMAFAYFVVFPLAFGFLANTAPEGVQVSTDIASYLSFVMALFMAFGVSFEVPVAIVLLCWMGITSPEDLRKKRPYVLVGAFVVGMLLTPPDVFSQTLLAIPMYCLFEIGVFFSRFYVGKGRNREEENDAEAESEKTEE
# Sequence of E. coli Tat machinery (IMVs containing overproduced TatABC) (P69425 whole entry): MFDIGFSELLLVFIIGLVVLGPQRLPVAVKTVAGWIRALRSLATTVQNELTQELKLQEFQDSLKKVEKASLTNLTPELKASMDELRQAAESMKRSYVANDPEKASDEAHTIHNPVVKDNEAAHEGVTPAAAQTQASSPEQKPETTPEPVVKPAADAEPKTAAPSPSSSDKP
# Sequence of E. coli Tat machinery (IMVs containing overproduced TatABC) (P69428 whole entry): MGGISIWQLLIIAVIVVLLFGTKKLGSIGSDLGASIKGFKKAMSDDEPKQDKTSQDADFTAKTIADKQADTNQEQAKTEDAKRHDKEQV
# [3] = nigericin and/or valinomycin, 50 μM each
structure (smiles),measurement,setting,value
N#C[S-].[Na+] [NaSCN],total cellular fluorescence (mCherry),"[1]; 30 mM NaSCN, spTorA-mCherry-H6 under Tat++ = 100%, spTorA-mCherry-SsrA without NaSCN 63±14%",36±14%
same,reduction of mCherry fluorescence,"[1]; NaSCN 50 mM, Tat++ cells, 25°C 8 h",~ 40%
same,concentration sufficient to maximally reduce the mCherry fluorescence signal without affecting cell growth,"[1]; dose response, Tat++ cells",30 mM
same,effect on growth of E. coli cultures,E. coli MC4100(DE3); NaSCN 50 mM,without affecting growth
same,effect on in vitro Tat transport,[2]; NaSCN alone,completely inhibits
[N-]=[N+]=[N-].[Na+] [Sodium azide],effect on mCherry fluorescence signal,[1]; NaN3 0.1%,decreased the mCherry fluorescence signal
same,effect on cell growth,E. coli MC4100(DE3); NaN3 0.1%,inhibited cell growth
CO[C@@H]1C[C@@H](C[C@H]2CC[C@H](C)[C@H]([C@@H](C)C(=O)O)O2)O[C@]2(O[C@](C)([C@H]3CC[C@@](C)([C@@H]4O[C@@H]([C@H]5O[C@@](O)(CO)[C@H](C)C[C@@H]5C)C[C@@H]4C)O3)C[C@H]2C)[C@@H]1C [nigericin],effect on mCherry fluorescence in culture,[1],did not affect
same,effect on cell growth,E. coli MC4100(DE3); [3],did not affect
same,effect on Tat transport in vitro,[2],completely block
CC(C)[C@@H]1NC(=O)[C@H](C)OC(=O)[C@@H](C(C)C)NC(=O)[C@@H](C(C)C)OC(=O)[C@H](C(C)C)NC(=O)[C@H](C)OC(=O)[C@@H](C(C)C)NC(=O)[C@@H](C(C)C)OC(=O)[C@H](C(C)C)NC(=O)[C@H](C)OC(=O)[C@@H](C(C)C)NC(=O)[C@@H](C(C)C)OC1=O [valinomycin],effect on mCherry fluorescence in culture,[1],did not affect
same,effect on cell growth,E. coli MC4100(DE3); [3],did not affect
same,effect on Tat transport in vitro,[2],completely block
